Source: patent publication US5914319A, “Antithrombotic agents” (Eli Lilly and Company, priority 1995, dated 1999)
Where a name gives a salt, the structure may show the parent alone.

What was measured:
Format in all cases: biochemical
[1] = test system: Human plasma; test: Human plasma anticoagulation, prothrombin time (PT); details: concentration required to double the PT, linear extrapolation
Protocol: (§1) Dog plasma and rat plasma is obtained from conscious mixed-breed hounds (either sex, Hazelton-LRE, Kalamazoo, Mich., U.S.A.) or from anesthetized male Sprague-Dawley rats (Harlan Sprague-Dawley, Inc., Indianapolis, Ind., U.S.A.) by venipuncture into 3.8 percent citrate. Fibrinogen is prepared from in-date ACD human blood as the fraction I-2 according to previous procedures and specifications. […] Human fibrinogen is also purchased as 98 percent pure/plasmin free from American Diagnostica, Greenwich, Conn. Coagulation reagents ACTIN, Thromboplastin, and Human plasma are from Baxter Healthcare Corp., Dade Division, Miami, Fla. Bovine thrombin from Parke-Davis ([…], Mich.) is used for coagulation assays in plasma.
(§2) Coagulation assay procedures are as previously described. […] A CoAScreener coagulation instrument (American LABor, Inc.) is used for all coagulation assay measurements. The prothrombin time (PT) is measured by adding 0.05 mL saline and 0.05 mL Thromboplastin-C reagent to 0.05 mL test plasma. The activated partial thromboplastin time (APTT) is measured by incubation of 0.05 mL test plasma with 0.05 mL Actin reagent for 120 seconds followed by 0.05 mL CaCl2 (0.02M). The thrombin time (TT) is measured by adding 0.05 mL saline and 0.05 mL thrombin (10 NIH units/mL) to 0.05 mL test plasma. The compounds of Formula I are added to human or animal plasma over a wide range of concentrations to determine prolongation effects on the APTT, PT, and TT assays. Linear extrapolations are performed to estimate the concentrations required to double the clotting time for each assay.

[2] = test system: Human plasma; test: Human plasma anticoagulation, activated partial thromboplastin time (APTT); details: concentration required to double the APTT, linear extrapolation
Protocol: as §1, §2

[3] = test system: Human plasma; test: Human plasma anticoagulation, thrombin time (TT); details: concentration required to double the thrombin time, linear extrapolation
Protocol: as §1, §2

Compound | Human Plasma Anticoagulation 2× Clotting time (ng/mL) PT [1] | Human Plasma Anticoagulation 2× Clotting time (ng/mL) APTT [2] | Human Plasma Anticoagulation 2× Clotting time (ng/mL) TT [3]
Cl.N=C(N)c1ccc(CNC(=O)CN(CCc2ccccc2)C(=O)CNCC(=O)O)cc1 [Example 89, HOOCCH2 -Gly-N-C6 H5 CH2 CH2 Gly-p-NHCH2 C6 H4 C(NH)NH2.HCl] | 37,000 ng/mL | 51,000 ng/mL | 570 ng/mL
CCS(=O)(=O)N[C@H](Cc1ccccc1)C(=O)N1CCC[C@H]1C(=O)NCCCc1cccc(C(=N)N)c1 [Example 31, EtSO2 -D-Phe-Pro-m-NHCH2 CH2 CH2 --C6 H4 C(=NH)NH2.HCl] | 30,000 ng/mL | 34,500 ng/mL | 10,800 ng/mL
Cl.NC(N)=NC/C=C/CNC(=O)[C@@H]1CCCN1C(=O)[C@H](N)Cc1ccccc1 (relative stereo) [Example 8, D-Phe-Pro-NHCH2 -trans-CH=CHCH2 NHC(NH)NH2.HCl] |  |  | 130 ng/mL
CCS(=O)(=O)N[C@H](CC1CCCCC1)C(=O)N1CCC[C@H]1C(=O)NCc1ccnc(N)c1.Cl [Example 83, EtSO2 -D-Cha-Pro-4-NHCH2 -2-aminopyridine.HCl] | 1,300 ng/mL | 1,000 ng/mL | 91 ng/mL
Cl.N=C(N)c1cc(CNC(=O)[C@@H]2CCCN2C(=O)[C@@H](CC2CCCCC2)NCC(=O)O)cs1 [Example 65, HO2 CCH2 -D-Cha-Pro-4-NHCH2 -2-amidinothiophene.HCl] |  | 48 ng/mL | 1 ng/mL
CCS(=O)(=O)N[C@H](CC1CCCCC1)C(=O)N1CCC[C@H]1C(=O)NCc1ccc(CN)cc1 [Example 81, EtSO2 -D-Cha-Pro-4-NHCH2 C6 H4 CH2 NH2.HCl] | 2,700 ng/mL | 1,500 ng/mL | 110 ng/mL
Cl.NC[C@H]1CC[C@H](CNC(=O)[C@@H]2CCCN2C(=O)[C@H](N)Cc2ccccc2)CC1 (relative stereo) [Example 12, D-Phe-Pro-NHCH2 -trans-4-(aminomethyl)cyclohexane.HCl] |  |  | 1,700 ng/mL
Cl.N=C(N)c1ccc(CNC(=O)[C@@H]2CCCN2C(=O)[C@@H](CC2CCCCC2)NCCC(=O)O)cc1 [Example 52, HOOCCH2 CH2 -D-Cha-Pro-p-NHCH2 C6 H4 C(NH)NH2.HCl] | 170 ng/mL | 80 ng/mL | 6 ng/mL
CCS(=O)(=O)N[C@H](Cc1ccccc1)C(=O)N1[C@H](C(=O)NCc2ccc(C(=N)N)cc2)C[C@@H]2CCCC[C@@H]21 (relative stereo) [Example 45, EtSO2 -Phe-cis-Ohi-p-NHCH2 C6 H4 C(NH)NH2.HCl] | 330 ng/mL | 200 ng/mL | 8 ng/mL
Nc1ccc(CNC(=O)[C@@H]2CCCN2C(=O)[C@@H](CC2CCCCC2)NCC(=O)O)cc1 [Example 62, HO2 CCH2 -D-Cha-Pro-4-NHCH2 C6 H4 NH2.HCl] |  |  | 54 ng/mL
Cl.N=C(N)c1cccc(CNC(=O)[C@@H]2CCCN2C(=O)[C@H](N)Cc2ccccc2)c1 [Example 16, D-Phe-Pro-m-NHCH2 C6 H4 C(NH)NH2.0.75HCl] | 8,500 ng/mL | 8,600 ng/mL | 650 ng/mL
HOOCCH2 -D-Phe-Pro-p-NHCH2 C6 H4 C(NH)NH2.HCl [Example 46] | 77 ng/mL | 67 ng/mL | 2. ng/mL
CCS(=O)(=O)N[C@H](Cc1ccccc1)C(=O)N1CCC[C@H]1C(=O)NCc1cccc(C(=N)N)c1 [Example 24, EtSO2 -D-Phe-Pro-m-NHCH2 --C6 H4 C(=NH)NH2.HCl] | 25,000 ng/mL | 25,900 ng/mL | 1,000 ng/mL
N=C(N)c1cccc(CNC(=O)[C@@H]2CCCN2C(=O)[C@@H]2NCC[C@@H]3CCCC[C@@H]32)c1 [Example 25, D-1-Piq-Pro-m-NHCH2 --C6 H4 C(=NH)NH2.HCl] | 40,400 ng/mL | 34,600 ng/mL | 1,430 ng/mL
Cl.O=C(O)CN[C@H](CC1CCCCC1)C(=O)N1CCC[C@H]1C(=O)NCCCC1=CCNCC1 [Example 60, HO2 CCH2 -D-Cha-Pro-4-NHCH2 CH2 CH2 -3,4-dehydropiperidine.HCl] | 77,700 ng/mL | 22,200 ng/mL | 3,200 ng/mL
HOOCCH2 -D-Phe-Pro(4-cis-isoamyl)-p-NHCH2 C6 H4 C(NH)NH2.HCl [Example 50] | 420 ng/mL | 460 ng/mL | 35 ng/mL

Compound | Human Plasma Anticoagulation 2× Clotting time (ng/mL) PT [1] | Human Plasma Anticoagulation 2× Clotting time (ng/mL) APTT [2] | Human Plasma Anticoagulation 2× Clotting time (ng/mL) TT [3]
Cl.Nc1cc(CNC(=O)[C@@H]2CCCN2C(=O)[C@@H](CC2CCCCC2)NCC(=O)O)ccn1 [Example 73, HO2 CCH2 -D-Cha-Pro-4-NHCH2 -2-aminopyridine.HCl] | 330 ng/mL | 340 ng/mL | 21 ng/mL
CCC(CC)C(=O)N[C@@H](CCS(C)(=O)=O)C(=O)N1CCC[C@H]1C(=O)NCc1ccc(C(=N)N)cc1 [Example 91, (C2 H5)2 CHCO-Met(O2)-Pro-p-NHCH2 C6 H4 C(NH)NH2.HCl] | 3,500 ng/mL | 3,000 ng/mL | 63 ng/mL
N=C(N)NCc1ccc(CNC(=O)[C@@H]2CCCN2C(=O)[C@H](N)Cc2ccccc2)cc1 [Example 9, D-Phe-Pro-p-NHCH2 C6 H4 CH2 NHC(NH)NH2.2TFA] |  |  | > 91,000 ng/mL
Cl.Nc1cc(CCNC(=O)[C@@H]2CCCN2C(=O)[C@@H](CC2CCCCC2)NCC(=O)O)ccn1 [Example 76, HO2 CCH2 -D-Cha-Pro-4-NHCH2 CH2 -2-aminopyridine.HCl] | 560 ng/mL | 490 ng/mL | 29 ng/mL
CCOC(=O)N[C@H](Cc1ccccc1)C(=O)N1CCC[C@H]1C(=O)NCCCCN=C(N)N.Cl [Example 3, EtOCO-D-Phe-Pro-Agm.HCl] |  |  | 590 ng/mL
Nc1ccc(CNC(=O)[C@@H]2CCCN2C(=O)[C@H](N)Cc2ccccc2)cc1 [Example 13, D-Phe-Pro-p-NHCH2 C6 H4 NH2.HCl] |  |  | 660 ng/mL
N=C(N)NCCCCCNC(=O)[C@@H]1CCCN1C(=O)[C@H](N)Cc1ccccc1 [Example 6, D-Phe-Pro-NH(CH2)5 NHC(NH)NH2.HCl] |  |  | 390 ng/mL
Cl.Nc1ccc(CCNC(=O)[C@@H]2CCCN2C(=O)[C@H](N)Cc2ccccc2)cc1 [Example 14, D-Phe-Pro-p-NHCH2 CH2 C6 H4 NH2.HCl] |  |  | 21,000 ng/mL
N=C(N)NCCCNC(=O)[C@@H]1CCCN1C(=O)[C@H](N)Cc1ccccc1 [Example 7, D-Phe-Pro-NH(CH2)3 NHC(NH)NH2.HCl] |  |  | 490 ng/mL
Cl.NCc1cccc(CNC(=O)[C@@H]2CCCN2C(=O)[C@H](N)Cc2ccccc2)c1 [Example 11, D-Phe-Pro-m-NHCH2 C6 H4 CH2 NH2.HCl] |  |  | 8,800 ng/mL
CCS(=O)(=O)N[C@H](CC1CCCCC1)C(=O)N1CCC[C@H]1C(=O)NCCCCN=C(N)N.Cl [Example 2, EtSO2 -D-Cha-Pro-Agm.HCl] |  |  | 170 ng/mL
N=C(N)NCCCCCCNC(=O)[C@@H]1CCCN1C(=O)[C@H](N)Cc1ccccc1 [Example 5, D-Phe-Pro-NH(CH2)6 NHC(NH)NH2.HCl] |  |  | 30,000 ng/mL
D-Phe-Pro-p-NHCH2 C6 H4 C(NH)NH2.HCl [Example 15] |  | 89 ng/mL | 9 ng/mL
Nc1ccc(CCNC(=O)[C@@H]2CCCN2C(=O)[C@@H](CC2CCCCC2)NCC(=O)O)cc1 [Example 63, HO2 CCH2 -D-Cha-Pro-4-NHCH2 CH2 C6 H4 NH2.HCl] |  |  | 680 ng/mL
NCc1ccc(CNC(=O)[C@@H]2CCCN2C(=O)[C@H](N)Cc2ccccc2)cc1 [Example 10, D-Phe-Pro-p-NHCH2 C6 H4 CH2 NH2.HCl] |  |  | 420 ng/mL
